Test systems include A498 renal; DU-145 prostate; HCT-15 colon; HT29 colon; LOX IMVI melanoma; MCF7 breast; NCI-H226 lung; OVCAR-3 ovarian; SNB-75 CNS; RPMI-8226 leukemia.
What all share (experiment): inhibition of tumour cell growth, NCI panel, 48 h

Where “and” joins values, the source holds several entries; their conditions need not be identical. Identical values can stand only once.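 Each compound was tested at five concentrations against cells in 96-well plates for 48 hours. GI50 = concentration required for 50% inhibition of growth. Definition used: TGI = concentration required for complete inhibition of growth.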

Consider `NC(N)=NCCC[C@H](N)C(=O)NCC(=O)N[C@@H](CC(=O)O)c1ncc(NC(=O)C(F)(F)F)o1`, for which the TGI in the test with A498 renal, with DU-145 prostate, with HCT-15 colon, with HT29 colon, in the test with LOX IMVI melanoma and in the test with MCF7 breast was over 25 µM throughout. Further, the TGI in the test on NCI-H226 lung, in the test on OVCAR-3 ovarian and in the test on SNB-75 CNS was over 25 µM each time.

Take `CCOC(=O)C(=Cc1[nH]c2ccccc2c1-c1c[nH]c2ccccc12)C(=O)OCC`: the TGI in the test with A498 renal came out at 28.6 µM; in the test with DU-145 prostate, 27.1 µM; with HCT-15 colon, 43.9 µM; in the test on HT29 colon, 17.5 µM; in the test with LOX IMVI melanoma it was 26.7 µM; in the test on MCF7 breast, 22.2 µM. For the same molecule, the TGI is 37.5 µM in the test with NCI-H226 lung, 21.2 µM in the test on OVCAR-3 ovarian, 23.8 µM in the test with RPMI-8226 leukemia and 26.4 µM in the test on SNB-75 CNS.

As for `COc1ccc(C2OC[C@H]3O[C@@H](OCc4ccccc4)[C@H](O)[C@@H](O)[C@@H]3O2)cc1` (stereo not given in full), the TGI in the test with A498 renal, in the test on DU-145 prostate, in the test on HCT-15 colon, in the test with HT29 colon, in the test with LOX IMVI melanoma and in the test with MCF7 breast was over 100 µM in each case. Further, the TGI in the test on NCI-H226 lung, in the test on OVCAR-3 ovarian, in the test on RPMI-8226 leukemia and with SNB-75 CNS was over 100 µM each time.

As to `COCN(CCC1=CCCCC1)C(=O)OC`, the TGI in the test on A498 renal, in the test on DU-145 prostate, with HCT-15 colon, with HT29 colon, in the test with MCF7 breast and with OVCAR-3 ovarian was over 100 µM each time. The TGI in the test on RPMI-8226 leukemia and with SNB-75 CNS was over 100 µM throughout.

For the molecule `O=C(NI1OC(=O)c2ccccc21)c1ccc(Cl)cc1`, the TGI with A498 renal, in the test with DU-145 prostate, in the test with HCT-15 colon, in the test with HT29 colon, in the test with LOX IMVI melanoma and in the test with MCF7 breast was over 100 µM in each case. The TGI in the test with NCI-H226 lung, with OVCAR-3 ovarian, in the test with RPMI-8226 leukemia and in the test with SNB-75 CNS was over 100 µM each time.

In the case of `O=C1C(CN2CCCCC2)CCC1CN1CCCCC1` (stereo not given), the TGI in the test with A498 renal was 29.2 µM; with DU-145 prostate, over 100 µM; with HCT-15 colon, 47.4 µM; with HT29 colon, 40.4 µM; with LOX IMVI melanoma it was 31.7 µM; in the test on MCF7 breast, 43 µM. Also, the TGI was over 100 µM in the test on NCI-H226 lung, 26.5 µM with OVCAR-3 ovarian, 28.4 µM in the test with RPMI-8226 leukemia and over 75.6 µM with SNB-75 CNS.

For the molecule `CCN(CC)CCNc1nc2ccc([N+](=O)[O-])cc2[n+]([O-])n1`, the TGI is 49.7 µM with A498 renal; over 100 µM in the test on DU-145 prostate; 39.8 µM in the test on HCT-15 colon; 52.1 µM with HT29 colon; 9.86 µM in the test on MCF7 breast; over 100 µM in the test with NCI-H226 lung. The TGI was over 100 µM with OVCAR-3 ovarian, 44.9 µM with RPMI-8226 leukemia and over 100 µM in the test with SNB-75 CNS.

Regarding `CSc1ccc2c(cc1=O)[C@@H](NC(=O)c1ccc(N)cc1)CCc1cc(O)c(O)c(O)c1-2`, the TGI in the test on A498 renal was over 100 µM; in the test with DU-145 prostate, over 100 µM; in the test on HCT-15 colon, 26 µM and 42.4 µM; with HT29 colon, 30.5 µM and 9.94 µM; in the test with LOX IMVI melanoma it was > 75 µM and 22.9 µM; in the test with MCF7 breast it was 21.7 µM and > 100 µM. The TGI is 40.1 µM and 5.49 µM in the test on NCI-H226 lung; 40.8 µM and 19.5 µM with OVCAR-3 ovarian; > 75 µM and 94.2 µM in the test with RPMI-8226 leukemia; over 100 µM in the test with SNB-75 CNS. Moreover, the GI50 is 13.3 µM and 2.57 µM with HT29 colon; 12 µM and 4.07 µM in the test with LOX IMVI melanoma; 9.14 µM and 3.83 µM with MCF7 breast; 16.6 µM and 1.75 µM in the test on NCI-H226 lung; 17.5 µM and 4.17 µM in the test with OVCAR-3 ovarian.

As to `CSc1ncnc2c1ncn2C1CC(Oc2ccc(C)cc2)C(COc2ccc(C)cc2)O1` (stereo not given), the TGI with A498 renal, in the test with DU-145 prostate, with HCT-15 colon, with HT29 colon, in the test with LOX IMVI melanoma and in the test with MCF7 breast was over 100 µM each time. For the same molecule, the TGI in the test with NCI-H226 lung, in the test on OVCAR-3 ovarian, in the test with RPMI-8226 leukemia and in the test with SNB-75 CNS was over 100 µM throughout.

On to `O=C1CSC(c2cccc(Oc3ccccc3)c2)N1c1ccc(Cl)cc1` (stereo not given), for which the TGI was 47.6 µM in the test on A498 renal; over 100 µM in the test with DU-145 prostate; over 100 µM in the test on HCT-15 colon; over 100 µM in the test with HT29 colon; 50.9 µM in the test with LOX IMVI melanoma; 38.5 µM in the test with MCF7 breast. The TGI with NCI-H226 lung was over 100 µM; with OVCAR-3 ovarian, over 100 µM; in the test on SNB-75 CNS it was 95.8 µM.

Consider `CC(=O)OCC12C(=O)C[C@@H](C)C3(CC(c4ccoc4)OC3=O)C1CCC(OC(C)=O)C21CO1` (stereo not given in full), for which the TGI with A498 renal, with DU-145 prostate, in the test with HCT-15 colon, in the test with HT29 colon, in the test on LOX IMVI melanoma and in the test with MCF7 breast was over 100 µM each time. The TGI in the test with NCI-H226 lung, in the test with OVCAR-3 ovarian, in the test on RPMI-8226 leukemia and in the test on SNB-75 CNS was over 100 µM throughout.

As for `Nc1cc2[nH]c(=O)c(=O)[nH]c2cc1N`, the TGI in the test with A498 renal, with DU-145 prostate, with HCT-15 colon, in the test on HT29 colon, with LOX IMVI melanoma and in the test on MCF7 breast was over 100 µM each time. The TGI in the test on NCI-H226 lung, with OVCAR-3 ovarian, with RPMI-8226 leukemia and in the test on SNB-75 CNS was over 100 µM throughout.

Turning to `CON(C)C(=O)CNC(=O)OCC1c2ccccc2-c2ccccc21`, the TGI with A498 renal was over 100 µM; in the test on DU-145 prostate it was over 100 µM; in the test on HCT-15 colon, over 100 µM; in the test on HT29 colon, over 100 µM; in the test on LOX IMVI melanoma it was 53.1 µM; with MCF7 breast, over 100 µM. The TGI with NCI-H226 lung is over 100 µM; in the test with OVCAR-3 ovarian, over 100 µM; in the test on RPMI-8226 leukemia, 91.7 µM; in the test on SNB-75 CNS, over 100 µM.

For the origin of these results see PubChem BioAssay (NCI).
